How the values were obtained:
[1] = test system: SW480 (primary colon cancer) cells; assay: SRB cytotoxicity assay, SW480; format: cell-based; settings: Homo sapiens, SW480; SRB assay, 48 h culture, mean ± SD, at least three independent experiments; compounds marked * : low solubility, real values might be lower; read-out: Cytotoxicity IC50, SW480
Procedure: (§1) The antiproliferative activity was tested on human primary (SW480) and metastatic (SW620) colon cancer, human prostate cancer (PC3), human liver cancer (HepG2), human breast cancer (MDA), human lung cancer (A549), and human immortalized keratinocyte (HaCaT) cell lines obtained from the American Type Culture Collection (ATCC, Rockville, MD, USA). The cells were cultured in EMEM (SW480 and SW620), RPMI 1640 (PC3) or DMEM High Glucose (HepG2, MDA, A549, and HaCaT) with stable glutamine supplemented with 10% heat-inactivated fetal bovine serum (FBS), penicillin (100 U/mL), and streptomycin (100 µg/mL) in 37 °C and 5% CO2/95% air humified incubator. The cells were grown until 80–90% confluence and then were harvested with 0.25% trypsin and used for the experiments. All the reagents for the cell culture were provided by VWR Chemicals.
(§2) Cytotoxicity was tested with the sulforhodamine B (SRB) assay according to the National Cancer Institute protocol with slight modifications. Briefly, cells were seeded on a 96-well plate (5 × 10^3 cells per well). After 24 h incubation, zero-time control cells were fixed with TCA (final concentration 5%) for 1 h at 4 °C. […] The untreated cells were used as the control. After incubation, the cells were fixed with TCA (final concentration 5%) for 1 h at 4 °C, gently washed 4 times with tap water, and left for drying. The dried fixed cells were incubated with SRB solution (0.05% SRB in 1% acetic acid) for 30 min rt, washed four times with 1% acetic acid, and left for drying. The dried cells were dissolved in 10 mM Tris-base solution (pH 10.5) and the absorbance was read at 510 nm.
(§3) The cell viability was presented as a percent of SRB reduction in the treated cells versus that in control cells. The mean absorbance for control cells was assumed as 100%. No-cell control (blank well) absorbance was assumed as 0%, unless the compound was cytostatic, then 0% referred to zero-time control. The IC50 values were calculated using the GraphPad Prism 10.1.2 (324) (USA) software. The most cytotoxic compounds (8 and 20) were selected for further in vitro experiments.

[2] = test system: SW620 (metastatic colon cancer) cells; assay: SRB cytotoxicity assay, SW620; format: cell-based; settings: Homo sapiens, SW-620; SRB assay, 48 h culture, mean ± SD, at least three independent experiments; compounds marked * : low solubility, real values might be lower; read-out: Cytotoxicity IC50, SW620
Procedure: as §1, §2, §3

[3] = test system: PC3 (prostate cancer) cells; assay: SRB cytotoxicity assay, PC3; format: cell-based; settings: Homo sapiens; SRB assay, 48 h culture, mean ± SD, at least three independent experiments; compounds marked * : low solubility, real values might be lower; read-out: Cytotoxicity IC50, PC3
Procedure: as §1, §2, §3

[4] = test system: HepG2 (liver cancer) cells; assay: SRB cytotoxicity assay, HepG2; format: cell-based; settings: Homo sapiens, HepG2; SRB assay, 48 h culture, mean ± SD, at least three independent experiments; compounds marked * : low solubility, real values might be lower; read-out: Cytotoxicity IC50, HepG2
Procedure: as §1, §2, §3

[5] = test system: MDA (breast cancer) cells; assay: SRB cytotoxicity assay, MDA; format: cell-based; settings: Homo sapiens; SRB assay, 48 h culture, mean ± SD, at least three independent experiments; compounds marked * : low solubility, real values might be lower; read-out: Cytotoxicity IC50, MDA
Procedure: as §1, §2, §3

A549 (lung cancer) cells = assay: SRB cytotoxicity assay, A549; format: cell-based; settings: Homo sapiens, A549; SRB assay, 48 h culture, mean ± SD, at least three independent experiments; compounds marked * : low solubility, real values might be lower; read-out: Cytotoxicity IC50, A549
Procedure: as §1, §2, §3

[6] = SRB cytotoxicity assay, HaCaT; format: cell-based; settings: human, 48 h culture, mean ± SD, at least three independent experiments, compounds marked * : low solubility, real values might be lower
Procedure: as §1, §2, §3

HaCaT cells = assay: Cell cycle analysis (PI, flow cytometry), HaCaT; format: cell-based, human; settings: 24 h treatment; for Cell cycle phase arrest (ratio G2/M to G0/G1): 1.5 and 2 nM CA4, 25, 30, 40 mM 8, 15, 20, 30 mM 20
Procedure: (§4) The cell cycle was assessed for the compounds 8 and 20 and the combretastatin CA4 as a reference compound. The compounds were most cytotoxic to the MDA and A549 cancerous cell lines; thus, these cell lines were selected for further analyses. The HaCaT cell line was chosen to represent non-cancer cells. For the experiment, the cells were seeded on 6-well plates (5 × 10^4 cells per well). After 24 h of incubation, the cells were treated with the compounds in selected concentrations (1.5 and 2 nM for CA4; […]) and incubated for the next 24 h. Then, the cells were detached with 0.25% trypsin, washed with 0.9% NaCl, and fixed with 70% ethanol at 4 °C for at least 16 h. For drying, the cells were washed twice with 0.9% NaCl, resuspended in 50 μg/mL propidium iodide (PI) and 100 μg/mL RNase in PBS and incubated for 30 min at 37 °C. The cell cycle distribution was analyzed by flow cytometer (FACS Verse, Becton, Dickinson and Company, Franklin Lakes, NJ, USA).

MDA cells = assay: Cell cycle analysis (PI, flow cytometry), MDA; format: cell-based, human; settings: 24 h treatment; for Cell cycle phase arrest (ratio G2/M to G0/G1): 1.5 and 2 nM CA4, 25, 30, 40 mM 8, 15, 20, 30 mM 20
Procedure: as §4

A549 cells = assay: Cell cycle analysis (PI, flow cytometry), A549; format: cell-based, human; settings: A549, 24 h treatment; for Cell cycle phase arrest (ratio G2/M to G0/G1): 1.5 and 2 nM CA4, 25, 30, 40 mM 8, 15, 20, 30 mM 20
Procedure: as §4

tubulin = assay: In vitro tubulin polymerization (turbidometry at 340 nm, BK004P kit); format: biochemical, porcine; settings: for Effect on in vitro tubulin polymerization: 37 °C, 60 min, absorbance 340 nm, CA-4 5 μM, colchicine 5 μM, compounds 8 and 20 at 20 or 100 μM; for Concentration dependence of the acceleration of tubulin polymerization: 20 and 100 μM
Procedure: The kinetics of microtubule assembly was assessed by measuring absorbance at 340 nm over time.
The assembly of purified bovine tubulin was monitored using a BK004P kit, purchased from Cytoskeleton Inc. (Denver, CO, USA). The assay was performed according to the manufacturer’s instructions using the standard assay conditions. […] Light was scattered proportionally to the concentration of the polymerized microtubules in the assay. Then, the tubulin assembly was monitored by turbidometry at 340 nm in a MultiscanGo spectrophotometer (ThermoFisher Scientific, Carlsbad, CA, USA) for 60 min. The time dependence of the tubulin polymerization was presented in the form of graphs prepared in the GraphPad Prism 8.4.3.686 (Boston, MA, USA) software.

[7] = set-up: method as in earlier work; settings: in contrast to the original compound; cited from earlier work
[8] = test system: six human cancer cell lines (SW480, SW620, PC3, HepG2, MDA, A549) and HaCaT; assay: SRB cytotoxicity assay, whole panel; format: cell-based; settings: Homo sapiens, depending on the compound and cell line, read-out: IC50 over the cell line panel
Procedure: The antiproliferative properties of the studied combretastatin derivatives were tested on six human cancer cell lines, including primary colon (SW480), metastatic colon (SW620), prostate (PC3), liver (HepG2), breast (MDA), and lung (A549) cancer cells, and non-tumor human immortalized keratinocyte cell line (HaCaT) using the sulforhodamine B (SRB) assay. […] No selectivity was observed against the tumor cell lines when compared to that against the non-tumor cell line. Nevertheless, these values were much higher than the IC50 of the reference compounds (<0.2 μM).
as §1, §2, §3

[9] = HaCaT immortalized keratinocyte cells (non-tumor cell line)

Row | SMILES | IC50 [1] | IC50 [2] | IC50 [3] | IC50 [4] | IC50 [5] | IC50 (A549 (lung cancer) cells) | IC50 at 48 h ([6]; non-tumor cell line) | DNA fragmentation (subG1 phase) (HaCaT cells) | Cell cycle phase arrest (ratio G2/M to G0/G1) (HaCaT cells) | DNA fragmentation (subG1 phase) (MDA cells) | Cell cycle phase arrest (ratio G2/M to G0/G1) (MDA cells) | Cell cycle phase arrest (ratio G2/M to G0/G1) (A549 cells) | Effect on in vitro tubulin polymerization (tubulin) | Water solubility [7] | IC50 at 48 h [6, 9] | IC50 [8] | DNA fragmentation (subG1 phase) (A549 cells) | Concentration dependence of the acceleration of tubulin polymerization (tubulin)
1 | COc1ccc(/C=C\c2cc(OC)c(OC)c(OC)c2)cc1O [CA4, combretastatin A-4] | 0.00281 ± 0.00017 µM | 0.00221 ± 0.00088 µM | 0.0021 ± 0.00026 µM | 0.00158 ± 0.00019 µM | 0.00372 ± 0.00027 µM | 0.00343 ± 0.00096 µM | 0.00427 ± 0.00047 µM | appearance of the subG1 phase was observed | G2 phase arrest | statistically significant differences between subG1 populations were observed | no statistically significant differences | no statistically significant differences | inhibited tubulin polymerization | – | – | – | – | –
2 | COc1ccc(/C=C\c2cc(OC)c(OC)c(OC)c2)cc1OP(=O)(O)O [Combretastatin A4 phosphate, combretastatin A-4 disodium phosphate] | – | – | – | – | – | – | – | – | – | – | – | – | – | water-soluble | – | – | – | –
3 | COc1ccc(/C(=C\c2cc(OC)c(OC)c(OC)c2)C(=O)OCCCCBr)cc1Br [Compound 8] | 32.7 ± 6.7 µM | 24.2 ± 8.4 µM | 31 ± 5.5 µM | 25.5 ± 6.3 µM | 23.1 ± 7.7 µM | 19.6 ± 2 µM | – | appearance of the subG1 phase was observed | G0/G1 phase arrest | statistically significant differences between subG1 populations were observed | not observed | G0/G1 phase arrest | enhanced tubulin polymerization | – | 23.9 ± 3.9 µM | 18.8 to 32.7 µM | certain differences were noted | concentration-dependent
4 | CCCCN(CCCC)C(=O)/C(=C/c1cc(OC)c(OC)c(OC)c1)c1ccc(OC)c(Br)c1 [Compound 20] | 18.8 ± 0.8 µM | 20.9 ± 2.9 µM | 23.7 ± 10.3 µM | 25.8 ± 9.6 µM | 19 ± 7.1 µM | 19.4 ± 2.2 µM | – | appearance of the subG1 phase was observed | G0/G1 phase arrest | – | G0/G1 phase arrest | G0/G1 phase arrest | enhanced tubulin polymerization | – | 20.5 ± 9.7 µM | 18.8 to 32.7 µM | certain differences were noted | on a similar level

Reference: paper PMC11124394, “Novel Combretastatin A-4 Analogs—Design, Synthesis, and Antiproliferative and Anti-Tubulin Activity” (Molecules, 2024)
